Reference: patent publication US9278958B2, “Anti-cancer compounds” (KATHOLIEKE UNIVERSITEIT LEUVEN, priority 2012, dated 2016)
Where two headings read alike, the source gives them in different places.

Key:
[1] = test system: CEM cells; test: Cytostatic assay, CEM; format: cell-based; conditions: Homo sapiens, CCRF-CEM
Procedure, shortened: (§1)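 Test compound was added to wells holding 5-7.5×10^4 cells. After line-specific growth periods of 48 h to 96 h at 37° C in a moist atmosphere with regulated CO2, the number of cells was recorded by Coulter counting.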

[2] = test system: Molt4/C8 cells; test: Cytostatic assay, Molt4/C8; format: cell-based; conditions: Table 2
Procedure, shortened: as §1

[3] = test system: Sup T1 cells; test: Cytostatic assay, Sup T1; format: cell-based; conditions: Homo sapiens, Table 2, read-out: Cytostatic activity (μM) Sup T 1
Procedure, shortened: as §1

[4] = test system: MT-2 cells; test: Cytostatic assay, MT-2; format: cell-based; conditions: Homo sapiens, MT2; Table 2
Procedure, shortened: as §1

[5] = test system: C8166 cells; test: Cytostatic assay, C8166; format: cell-based; conditions: Homo sapiens, Table 2
Procedure, shortened: as §1

[6] = test system: HUT-78 cells; test: Cytostatic assay, HUT-78; format: cell-based; conditions: Homo sapiens, HuT78; Table 2
Procedure, shortened: as §1

[7] = test system: MT-4 cells; test: Cytostatic assay, MT-4; format: cell-based; conditions: Homo sapiens, MT4; Table 2
Procedure, shortened: as §1

[8] = test system: HL60, human leukemia cells; test: Cytostatic assay, HL-60; format: cell-based; conditions: Table 2
Procedure, shortened: as §1

[9] = test system: U937, human monocytic cells; test: Cytostatic assay, U937; format: cell-based; conditions: U-937, Table 2
Procedure, shortened: as §1

[10] = test system: THP-1, human monocytic cells; test: Cytostatic assay, THP-1; format: cell-based; conditions: Table 2
Procedure, shortened: as §1

[11] = test system: Raji, human B-lymphoma cells; test: Cytostatic assay, Raji; format: cell-based; conditions: Table 2
Procedure, shortened: as §1

[12] = test system: L1210 cells; test: Cytostatic assay, L1210; format: cell-based; conditions: Mus musculus, Table 2
Procedure, shortened: as §1

[13] = test system: OST TK- osteosarcoma cells; test: Cytostatic assay, OST TK-; format: cell-based; conditions: Homo sapiens; Table 3
Procedure, shortened: as §1

[14] = test system: MCF-7 mammary carcinoma cells; test: Cytostatic assay, MCF-7; format: cell-based; conditions: Homo sapiens, MCF7; Table 3
Procedure, shortened: as §1

[15] = test system: FM3A mammary carcinoma cells; test: Cytostatic assay, FM3A; format: cell-based, murine; conditions: Mus musculus, Table 3
Procedure, shortened: as §1

[16] = test system: HeLa cervix carcinoma cells; test: Cytostatic assay, HeLa; format: cell-based, human; conditions: Homo sapiens; Table 3; read-out: Cytostatic activity (μM) Hela
Procedure, shortened: as §1

[17] = test system: Caki-1 kidney carcinoma cells; test: Cytostatic assay, Caki-1; format: cell-based; conditions: Homo sapiens, Table 3
Procedure, shortened: as §1

[18] = test system: Caki-2 kidney carcinoma cells; test: Cytostatic assay, Caki-2; format: cell-based; conditions: Homo sapiens, Table 3
Procedure, shortened: as §1

[19] = test system: 293T embryonic kidney cells; test: Cytostatic assay, 293T; format: cell-based; conditions: Homo sapiens, HEK-293T; Table 3
Procedure, shortened: as §1

[20] = test system: HT29 colorectal carcinoma cells; test: Cytostatic assay, HT29; format: cell-based; conditions: Homo sapiens, HT-29; Table 3
Procedure, shortened: as §1

[21] = test system: U87 glioma cells; test: Cytostatic assay, U87; format: cell-based; conditions: Homo sapiens, U-87 MG; Table 3
Procedure, shortened: as §1

[22] = test system: HEL embryonic lung fibroblast cells; test: Cytostatic assay, HEL; format: cell-based; conditions: Homo sapiens, Table 3
Procedure, shortened: as §1

[23] = test system: BAEC aortic endothelial cells; test: Cytostatic assay, BAEC; format: cell-based, bovine; conditions: Bos taurus, Table 3
Procedure, shortened: as §1

[24] = test system: PC3 (rega) prostate cancer cells; test: Cytostatic assay, PC3 (rega); format: cell-based; conditions: Table 4
Procedure, shortened: as §1

[25] = test system: BPH-1 (UZ); test: Cytostatic assay, BPH-1 (UZ); format: cell-based; conditions: Homo sapiens, Table 4
Procedure, shortened: as §1

[26] = test system: DU145 (UZ) prostate cancer cells; test: Cytostatic assay, DU145 (UZ); format: cell-based; conditions: Homo sapiens, DU-145; Table 4
Procedure, shortened: as §1

[27] = test system: PC-3 (UZ) prostate cancer cells; test: Cytostatic assay, PC-3 (UZ); format: cell-based; conditions: Table 4
Procedure, shortened: as §1

[28] = test system: LNCaP (UZ) prostate cancer cells; test: Cytostatic assay, LNCaP (UZ); format: cell-based; conditions: Homo sapiens, Table 4
Procedure, shortened: as §1

[29] = test system: PNT1A (UZ) prostate cells; test: Cytostatic assay, PNT1A (UZ); format: cell-based; conditions: Homo sapiens, Table 4
Procedure, shortened: as §1

[30] = test system: 22Rv1 (UZ) prostate cancer cells; test: Cytostatic assay, 22Rv1 (UZ); format: cell-based; conditions: Homo sapiens, Table 4
Procedure, shortened: as §1

[31] = test system: PLC/PRF/5 hepatoma cells; test: Cytostatic assay, PLC/PRF/5; format: cell-based; conditions: Homo sapiens, Table 4
Procedure, shortened: as §1

[32] = test system: HepG2C3A hepatoma cells; test: Cytostatic assay, HepG2C3A; format: cell-based; conditions: Homo sapiens, HepG2/C3A; Table 4
Procedure, shortened: as §1

[33] = test system: Huh-7 hepatoma cells; test: Cytostatic assay, Huh-7; format: cell-based; conditions: Homo sapiens, Table 4
Procedure, shortened: as §1

[34] = test system: DNA synthesis in CEM cells; test: Antimetabolic activity assay, [CH3-3H]dThd incorporation (DNA synthesis), CEM; format: cell-based; conditions: Homo sapiens, CCRF-CEM, incorporation into TCA-insoluble material
Method: (§2) Radiolabeled precursors of DNA synthesis ([^3H-methyl]dThd), RNA synthesis ([5-^3H]Urd), and protein synthesis ([4,5-^3H]leu) were added to 10^5 CEM cell cultures in the 200 μl-wells of a microtiter plate at 1 μCi for each precursor in the presence of varying concentrations of the test compounds (5-fold dilution series). The cells were allowed to proliferate for 20 hrs at 37° C. in a humidified, CO2-controlled atmosphere. At the end of the incubation period, the contents of the wells were brought onto 25-mm glass fiber filters and further processed for measurement of acid-insoluble radioactivity.

[35] = test system: DNA synthesis in Raji cells; test: Antimetabolic activity assay, [CH3-3H]dThd incorporation (DNA synthesis), Raji; format: cell-based; conditions: Homo sapiens, incorporation into TCA-insoluble material
Method: [The procedure below names another cell line; the source lists this cell line under the same test.] as §2

[36] = test system: RNA synthesis in CEM cells; test: Antimetabolic activity assay, [5-3H]uridine incorporation (RNA synthesis), CEM; format: cell-based; conditions: Homo sapiens, CCRF-CEM, incorporation into TCA-insoluble material
Method: as §2

[37] = test system: RNA synthesis in Raji cells; test: Antimetabolic activity assay, [5-3H]uridine incorporation (RNA synthesis), Raji; format: cell-based; conditions: Homo sapiens, incorporation into TCA-insoluble material
Method: [The procedure below names another cell line; the source lists this cell line under the same test.] as §2

[38] = test system: protein synthesis in CEM cells; test: Antimetabolic activity assay, [4,5-3H]leucine incorporation (protein synthesis), CEM; format: cell-based; conditions: Homo sapiens, CCRF-CEM, incorporation into TCA-insoluble material
Method: as §2

[39] = test system: protein synthesis in Raji cells; test: Antimetabolic activity assay, [4,5-3H]leucine incorporation (protein synthesis), Raji; format: cell-based; conditions: Homo sapiens, incorporation into TCA-insoluble material
Method: [The procedure below names another cell line; the source lists this cell line under the same test.] as §2

[40] = Table 2, read-out: Cytostatic activity (μM) CEM

Structure (SMILES) | IC50 [1, 40] [µM] | IC50 [2] [µM] | IC50 [3] [µM] | IC50 [4] [µM] | IC50 [5] [µM] | IC50 [6] [µM] | IC50 [7] [µM] | IC50 [8] [µM] | IC50 [9] [µM] | IC50 [10] [µM] | IC50 [11] [µM] | IC50 [12] [µM] | IC50 [13] [µM] | IC50 [14] [µM] | IC50 [15] [µM] | IC50 [16] [µM] | IC50 [17] [µM] | IC50 [18] [µM] | IC50 [19] [µM] | IC50 [20] [µM] | further results
CCOC(=O)c1cc(-c2ccc(OC)cc2)sc1N [TR525, 2-Amino-5-(4-methoxy-phenyl)-thiophene-3-carboxylic acid ethyl ester] | 40 ± 1 | 18 ± 2.1 | 86 ± 7.1 | 52 ± 5.7 | 102 ± 16 | 117 ± 21 | > 100 | 62 ± 9.9 | 115 ± 19 | 102 ± 2.8 | > 100 | 44 ± 3 | 79 ± 2.8 | 81 ± 4.9 | 49 ± 6 | 39 ± 4 | 83 ± 36 | 159 ± 19 | > 100 | 93 ± 11 | IC50 ([1]; Table 1a, read-out: IC50 μM (CEM)): 40 µM; IC50 [21]: 90 ± 14 µM; IC50 [22]: 43 ± 9.9 µM; IC50 [23]: 74 ± 26 µM; IC50 [24]: 13 ± 9.6 µM; IC50 [25]: 36 ± 1.4 µM; IC50 [26]: 41 ± 24 µM; IC50 [27]: 20 ± 3.5 µM; IC50 [28]: 2.3 ± 0.071 µM; IC50 [29]: 42 ± 5.7 µM; IC50 [30]: 16 ± 5.5 µM; IC50 [31]: > 100 µM; IC50 [32]: > 100 µM; IC50 [33]: > 100 µM; IC50 [34]: 15 ± 3 µM; IC50 [35]: ≥ 100 µM; IC50 [36]: 12 ± 5 µM; IC50 [37]: 82 ± 26 µM; IC50 [38]: 6.2 ± 7.6 µM; IC50 [39]: ≥ 100 µM
CCOC(=O)c1cc(CCc2ccccc2OC)sc1N [TR542, 2-Amino-5-[2-(2-methoxy-phenyl)-ethyl]-thiophene-3-carboxylic acid ethyl ester] | 20 ± 4 | 6.8 | 23 ± 2.1 | 79 ± 17 | 143 ± 32 | 107 ± 70 | 41 ± 5.7 | 11 ± 2.2 | 80 ± 5.7 | 31 ± 13 | 55 ± 12 | 40 | 41 ± 0.71 | 60 ± 0.7 | 53 ± 7 | 45 ± 6 | 62 ± 12 | 16 ± 10 | > 100 | > 100 | IC50 [21]: > 100 µM; IC50 [22]: 43 ± 4.9 µM; IC50 [23]: > 100 µM; IC50 [24]: 8.6 ± 3.4 µM; IC50 [25]: 74 ± 4.2 µM; IC50 [26]: 34 ± 7.1 µM; IC50 [27]: 8.5 ± 3.5 µM; IC50 [28]: 3.8 ± 2.9 µM; IC50 [29]: 45 µM; IC50 [30]: 33 ± 0.71 µM; IC50 [31]: 39 ± 5.7 µM; IC50 [32]: 30 ± 0.71 µM; IC50 [33]: 28 ± 17 µM; IC50 [34]: 68 ± 14 µM; IC50 [35]: ≥ 100 µM; IC50 [36]: 39 ± 32 µM; IC50 [37]: ≥ 100 µM; IC50 [38]: 23 ± 14 µM; IC50 [39]: 94 ± 7 µM
